Experimental data taken from patent publication US11827646B2, “Compounds for treating spinal muscular atrophy” (Hoffmann-La Roche Inc., priority 2014, dated 2023).

Legend:
[1] = system: SMN protein in SMA patient fibroblast cells (GM03813); experiment: SMN protein assay in cultured cells (SMN HTRF); type: cell-based; conditions: Homo sapiens, SMA Type 1 patient fibroblasts, 48 hours; for EC (1.5-fold): 7-point concentration curve, 1.5 times SMN protein vs vehicle, read-out: EC1.5x SMN protein (EC1.5x concentration for SMN protein expression); for maximal fold induction: fold increase relative to vehicle control, read-out: max. fold increase of SMN protein
Text: The term “EC1.5x concentration for SMN protein expression” (or “EC1.5x SMN protein”) is defined as that concentration of test compound that is effective in producing 1.5 times the amount of SMN protein in an SMA patient fibroblast cell compared to the amount produced from the vehicle control.
The SMN HTRF (homogeneous time resolved fluorescence) assay is used to quantify the level of SMN protein in SMA patient fibroblast cells treated with test compounds. Materials used and respective sources are listed below in Table 4.
Cells are thawed and cultured in DMEM-10% FBS for 72 hours. Cells are trypsinized, counted and re-suspended to a concentration of 25,000 cells/mL in DMEM-10% FBS. The cell suspensions are plated at 5,000 cells per well in a 96 well microtiter plate and incubated for 3 to […]. Test compounds are serially diluted 3.16-fold in 100% DMSO to generate a 7-point concentration curve. 1 μL of test compound solution is transferred to cell-containing wells and cells are incubated for 48 hours in a cell culture incubator (37° C., 5% CO2, […]). Triplicate samples are set up for each test compound concentration. After 48 hours, the supernatant is removed from the wells and 25 μL of the RIPA lysis buffer, containing protease inhibitors, is added to the wells and incubated with shaking at room temperature for 1 hour. 25 μL of the diluent is added and then 35 μL of the resulting lysate is transferred to a 384-well plate, where each well contains 5 μL of the antibody solution (1:100 dilution of anti-SMN d2 and anti-SMN kryptate in SMN reconstitution buffer). The plate is centrifuged for 1 minute to bring the solution to the bottom of the wells, then incubated overnight at room temperature. Fluorescence for each well of the plate at 665 nm and 620 nm is measured on an EnVision multilabel plate reader (Perkin-Elmer).
The normalized fluorescence signal is calculated for each sample, Blank and vehicle control well by dividing the signal at 665 nm by the signal at 620 nm. Normalizing the signal accounts for possible fluorescence quenching due to the matrix effect of the lysate. The ΔF value (a measurement of SMN protein abundance as a percent value) for each sample well is calculated by subtracting the normalized average fluorescence for the Blank control wells from the normalized fluorescence for each sample well, then dividing this difference by the normalized average fluorescence for the Blank control wells and multiplying the resulting value by 100. The ΔF value for each sample well represents the SMN protein abundance from test compound-treated samples. The ΔF value for each sample well is divided by the ΔF value for the vehicle control wells to calculate the fold increase in SMN protein abundance relative to the vehicle control. Table 5 provides EC1.5x concentrations for SMN protein expression that was obtained from the 7-point concentration data generated according to the above procedure for particular compounds of the present invention.
Table 6 provides the maximum fold increase of SMN protein that was obtained from the 7-point concentration data generated according to the above procedure for particular compounds of the present invention

[2] = system: full length SMN2 minigene mRNA (HEK293H cells stably transfected with SMN2-A minigene); experiment: SMN2 minigene mRNA splicing RT-qPCR assay in cultured cells; type: cell-based; conditions: Homo sapiens, HEK293-H, 24 hours, 7-point concentration curve, 1.5-fold increase relative to vehicle, read-out: EC1.5x minigene (EC1.5x concentration for production of full length SMN2 minigene mRNA)
Text: The term “EC1.5x concentration for production of full length SMN2 minigene mRNA” (or “EC1.5x minigene”) is defined as that concentration of test compound that 1 s effective m increasing the amount of full length SMN2 minigene mRNA to a level 1.5-fold greater relative to that in vehicle-treated cells.
The reverse transcription-quantitative PCR-based (RT-qPCR) assay is used to quantify the level of the full length SMN2 minigene (referred to herein by the term “FL SMN2mini”) mRNA containing SMN2 exon 7 in a HEK293H cell line stably transfected with said minigene and treated with a test compound. Materials used and respective sources are listed below in Table 1.
The SMN2-A minigene construct was prepared as described in International Patent Application WO2009/151546A1 page 145 paragraph [00400] to page 147 paragraph [00412](incl. FIG. 1 and FIG. 3 therein).
HEK293H cells stably transfected with the SMN2-A minigene construct (10,000 cells/well) are seeded in 200 μL of cell culture medium (DMEM plus 10% FBS, with 200 μg/mL hygromycin) in 96-well flat-bottom plates and the plate is immediately swirled to ensure proper dispersal of cells and the formation of an even monolayer of cells. Cells are allowed to attach for 6 hours. Test compounds are serially diluted 3.16-fold in 100% DMSO to generate a 7-point concentration curve. A solution of test compound (1 μL, 200× in DMSO) is added to each cell-containing well and the plate is incubated for 24 hours in a cell culture incubator (37° C., 5% CO2, 100% relative humidity). 2 replicates are prepared for each test compound concentration. The cells are then lysed in the Cells-To-Ct lysis buffer and the lysate is stored at −80° C.
Full length SMN2-A minigene and GAPDH mRNA are quantified using the primers and probes referenced in Table 2. Primer SMN Forward A (SEQ ID NO.1) hybridizes to a nucleotide sequence in exon 7 (nucleotide 22 to nucleotide 40), primer SMN Reverse A (SEQ ID NO.2) hybridizes to a nucleotide sequence in the coding sequence of Firefly luciferase, SMN Probe A (SEQ ID NO.3) hybridizes to a nucleotide sequence in exon 7 (nucleotide 50 to nucleotide 54) and exon 8 (nucleotide 1 to nucleotide 21). The combination of these three oligonucleotides detects only SMN1 or SMN2 minigenes (RT-qPCR) and will not detect endogenous SMN1 or SMN2 genes.
The SMN forward and reverse primers are used at final concentrations of 0.4 μM. The SMN probe is used at a final concentration of 0.15 μM. The GAPDH primers are used at final concentrations of 0.2 μM and the probe at 0.15 μM.
The SMN2-minigene GAPDH mix (15 μL total volume) is prepared by combining 7.5 μL of 2×RT-PCR buffer, 0.4 μL of 25×RT-PCR enzyme mix, 0.75 μL of 20×GAPDH primer-probe mix, 4.0075 μL of water, 2 μL of 10-fold diluted cell lysate, 0.06 μL of 100 µM SMN forward primer, 0.06 μL of 100 μM SMN reverse primer, and 0.225 μL of 100 μM SMN probe.
PCR is carried out at the following temperatures for the indicated time: Step 1: 48° C. (15 min); Step 2: 95° C. (10 min); Step 3: 95° C. (15 sec); Step 4: 60° C. (1 min); then repeat Steps 3 and 4 for a total of 40 cycles.
Each reaction mixture contains both SMN2-A minigene and GAPDH primers/probe sets (multiplex design), allowing simultaneous measurement of the levels of two transcripts.
The increase in the abundance of the FL SMN2mini mRNA relative to that in cells treated with vehicle control is determined from real-time PCR data using a modified ΔΔCt method (as described in Livak and Schmittgen, Methods, 2001, 25:402-8). The amplification efficiency E is calculated from the slope of the amplification curve for FL SMN2mini and GAPDH individually. The abundance of FL SMN2mini and GAPDH mRNA are then calculated as (1+E)^−Ct, where Ct is the threshold value for each amplicon. The abundance of FL SMN2mini mRNA is normalized to GAPDH mRNA abundance. […]

SMILES | EC (1.5-fold) [1] [µM] | maximal fold induction [1] | EC (1.5-fold) [2] [µM]
Cc1cn2nc(-c3cc(=O)n4cc(N5CCNC6(CC6)C5)ccc4n3)ccc2n1 [Example 19, 7-(4,7-diazaspiro[2.5]octan-7-yl)-2-(2-methylimidazo[1,2-b]pyridazin-6-yl)pyrido[1,2-a]pyrimidin-4-one] | 0.0298 | 1.83 | 
Cc1cn2nc(-c3cc(=O)n4cc(N5CC[C@@H](N6CCCC6)C5)ccc4n3)ccc2n1 [Example 21, 2-(2-methylimidazo[1,2-b]pyridazin-6-yl)-7-[(3R)-3-pyrrolidin-1-ylpyrrolidin-1-yl]pyrido[1,2-a]pyrimidin-4-one] | 0.0687 | 1.54 | 0.0096
Cc1cn2nc(-c3cc(=O)n4cc(N5CCN[C@H](C)C5)cc(C)c4n3)cc(C)c2n1 [Example 25, 2-(2,8-dimethylimidazo[1,2-b]pyridazin-6-yl)-9-methyl-7-[(3R)-3-methylpiperazin-1-yl]pyrido[1,2-a]pyrimidin-4-one] | 0.0119 | 1.79 | 0.0005
Cc1cn2nc(-c3cc(=O)n4cc(N5CCN[C@@H](C)C5)cc(C)c4n3)cc(C)c2n1 [Example 24, 2-(2,8-dimethylimidazo[1,2-b]pyridazin-6-yl)-9-methyl-7-[(3S)-3-methylpiperazin-1-yl]pyrido[1,2-a]pyrimidin-4-one] | 0.0047 | 1.77 | 0.0004
Cc1cn2nc(-c3cc(=O)n4cc(N5CCN[C@@H](C)C5)ccc4n3)cc(C)c2n1 [Example 8, 2-(2,8-dimethylimidazo[1,2-b]pyridazin-6-yl)-7-[(3S)-3-methylpiperazin-1-yl]pyrido[1,2-a]pyrimidin-4-one] | 0.0059 | 1.85 | 0.0003
Cc1cn2nc(-c3cc(=O)n4cc(N5CC[C@@H](N6CCCC6)C5)ccc4n3)cc(C)c2n1 [Example 18, 2-(2,8-dimethylimidazo[1,2-b]pyridazin-6-yl)-7-[(3R)-3-pyrrolidin-1-ylpyrrolidin-1-yl]pyrido[1,2-a]pyrimidin-4-one] | 0.025 | 1.75 | 0.0036
Cc1cn2nc(-c3cc(=O)n4cc(N5CCN6CCC[C@@]6(C)C5)ccc4n3)ccc2n1 [Example 16, 7-[(8aS)-8a-methyl-1,3,4,6,7,8-hexahydropyrrolo[1,2-a]pyrazin-2-yl]-2-(2-methylimidazo[1,2-b]pyridazin-6-yl)pyrido[1,2-a]pyrimidin-4-one] | 0.003 | 1.83 | 0.0011
Cc1cn2nc(-c3cc(=O)n4cc(N5CCNC6(CC6)C5)ccc4n3)cc(C)c2n1 [Example 20, 7-(4,7-diazaspiro[2.5]octan-7-yl)-2-(2,8-dimethylimidazo[1,2-b]pyridazin-6-yl)pyrido[1,2-a]pyrimidin-4-one] | 0.037 | 1.72 | 0.0043
Cc1cn2nc(-c3cc(=O)n4cc(N5C[C@@H](C)N[C@@H](C)C5)cc(C)c4n3)ccc2n1 [Example 35, 7-[(3R,5S)-3,5-dimethylpiperazin-1-yl]-9-methyl-2-(2-methylimidazo[1,2-b]pyridazin-6-yl)pyrido[1,2-a]pyrimidin-4-one] | 0.0195 | 1.79 | 0.0047
Cc1cn2nc(-c3cc(=O)n4cc(N5CC[C@H](N6CCCC6)C5)ccc4n3)cc(C)c2n1 [Example 30, 2-(2,8-dimethylimidazo[1,2-b]pyridazin-6-yl)-7-[(3S)-3-pyrrolidin-1-ylpyrrolidin-1-yl]pyrido[1,2-a]pyrimidin-4-one] | 0.0136 | 1.84 | 0.003
Cc1cn2nc(-c3cc(=O)n4cc(N5CCN[C@@H](C)C5)ccc4n3)ccc2n1 [Example 11, 2-(2-methylimidazo[1,2-b]pyridazin-6-yl)-7-[(3S)-3-methylpiperazin-1-yl]pyrido[1,2-a]pyrimidin-4-one] | 0.007 | 1.9 | 0.0014
Cc1cn2nc(-c3cc(=O)n4cc(N5C[C@H](C)N[C@@H](C)C5)cc(C)c4n3)ccc2n1 [Example 38, 7-[(3S,5S)-3,5-dimethylpiperazin-1-yl]-9-methyl-2-(2-methylimidazo[1,2-b]pyridazin-6-yl)pyrido[1,2-a]pyrimidin-4-one] | 0.0031 | 1.85 | 0.0003
Cc1cn2nc(-c3cc(=O)n4cc(N5CCNC(C)(C)C5)cc(C)c4n3)cc(C)c2n1 [Example 27, 2-(2,8-dimethylimidazo[1,2-b]pyridazin-6-yl)-7-(3,3-dimethylpiperazin-1-yl)-9-methyl-pyrido[1,2-a]pyrimidin-4-one] | 0.127 | 1.57 | 
Cc1cn2nc(-c3cc(=O)n4cc(N5C[C@@H](C)N[C@@H](C)C5)cc(C)c4n3)cc(C)c2n1 [Example 26, 2-(2,8-dimethylimidazo[1,2-b]pyridazin-6-yl)-7-[(3R,5S)-3,5-dimethylpiperazin-1-yl]-9-methyl-pyrido[1,2-a]pyrimidin-4-one] | 1.23 | 1.52 | 
